Assay results from US7049094B2, “Methods for identifying modulators of N-type ion channel inactivation” (Wyeth, priority 1999, dated 2006).

How the values were obtained:
hKv1.4 channels = target: T1, hKv1.4 channels (Homo sapiens, UniProt P22459); experiment: Elimination of N-type inactivation of hKv1.4 channels (CHO cells); format: cell-based; conditions: glutathione keeps channels in reduced (inactivating) state
T1 construct: expressed in transfected cells; host or cells: CHO cells
Description: Compounds active in the yeast assay were examined for their ability to disrupt N-type Kv channel inactivation in CHO cells transfected with hKv1.1 alone, hKv1.1 plus hKvβ1, or hKv1.4, and in Xenopus oocytes injected with the corresponding mRNA's. […] This “disinactivating” effect was potent and dose dependent, with an IC50 ranging from 0.3 μM to […] in CHO cells and a 3–5 fold higher IC50 of 0.9 μM in oocytes. […] In addition to the disinactivating effect of these compounds, a parallel dose-dependent increase in peak current occurred simultaneously with the loss of inactivation. This increase in peak current is probably at least partially due to the removal of inactivation, which uncovers the “true” peak current of the channels in the cell, although other mechanisms such as a stabilization of the open state of the channel may also be occurring. […] At 100 μM, however, Compound “A” blocked approximately 37% of the hKv1.1 current in CHO cells, thus high concentrations of some of these compounds are able to block Kv1.1 channels.
The mechanism of action of these Kv channel modulators (referred to herein as “disinactivators”) was further explored first by altering the voltage protocol so that single voltage steps to 50 mV were applied once every 20 sec (FIG. 8). […]

PTZ-induced seizures = experiment: Protection against pentylenetetrazol-induced seizures; format: in vivo; conditions: Mus musculus; mice, I.P., 30 min before PTZ 85 mg/kg s.c.; read-out: estimated ED50, protection against PTZ-induced seizures
Description: FIG. 8. Protection against pentelenetetrazol-induced seizures in the mouse. Adult male mice were treated with valproic acid (FIG. 8a), Compound A (FIG. 8b), and Compound B (FIG. 8c) at doses from 30–178 mg/kg i.p. (n=8/dose). Thirty minutes later, these animals were challenged with pentelenetetrazol (85 mg/kg, SC) and observed for onset of seizures during a 30 minute test period. The number of animals protected from seizures was plotted versus dose of test compound and ED50s were estimated from this dose-response data.
The activities of Kv channel modulators were examined in several in vitro and in vivo seizure models. Field potential recordings were performed in the CA1 region of rat hippocampal slices treated with 10 μM bicuculline to induce multiple population spikes (Albus, H. and R. Williamson, Epilepsia (1998) 39(2):124–139). […] To test this hypothesis directly, the disinactivators were examined for their ability to protect mice from pentylenetetrazol-induced seizures. Mice were pretreated with Compound “D” or Compound “E” (30–300 mg/kg i.p.), valproic acid (156 mg/kg i.p.) or saline. Thirty minutes later, pentylenetetrazol (PTZ; 85 mg/kg, s.c.) was administered and the mice were monitored for development of spontaneous, recurrent seizures (a seizure was defined as loss of righting reflex; see Frey, H.-H. and I. Bartels, Epilepsy Res. (1997) 27:151–164). […]

T1 sequence (P22459 whole entry): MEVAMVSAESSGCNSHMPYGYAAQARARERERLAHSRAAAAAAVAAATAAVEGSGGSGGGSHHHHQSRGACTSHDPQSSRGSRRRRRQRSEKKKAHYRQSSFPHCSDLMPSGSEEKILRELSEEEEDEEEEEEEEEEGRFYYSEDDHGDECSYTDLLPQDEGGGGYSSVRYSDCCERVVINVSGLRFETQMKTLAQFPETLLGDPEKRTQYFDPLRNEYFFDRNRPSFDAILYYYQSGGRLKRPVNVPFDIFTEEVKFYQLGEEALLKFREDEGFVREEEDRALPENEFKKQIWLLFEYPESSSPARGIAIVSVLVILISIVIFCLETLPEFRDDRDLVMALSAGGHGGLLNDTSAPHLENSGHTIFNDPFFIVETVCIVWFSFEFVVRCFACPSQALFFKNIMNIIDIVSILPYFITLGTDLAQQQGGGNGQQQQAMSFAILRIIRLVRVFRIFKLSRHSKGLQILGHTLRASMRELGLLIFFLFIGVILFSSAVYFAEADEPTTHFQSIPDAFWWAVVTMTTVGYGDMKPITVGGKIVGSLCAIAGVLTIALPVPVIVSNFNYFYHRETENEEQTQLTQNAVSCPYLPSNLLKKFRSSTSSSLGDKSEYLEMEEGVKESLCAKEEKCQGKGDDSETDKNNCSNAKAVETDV

SMILES	disinactivation of hKv1.4 with glutathione applied (hKv1.4 channels)	ED50 (PTZ-induced seizures)
OO [Compound H2O2, H2O2]	Glutathione was able to block the disinactivation	
CCCC(CCC)C(=O)O [valproic acid]		141 mg/kg
